Data published in US20060147388A1, “Pharmaceutical compositions for nasal delivery” (priority 2003, published 2006).
Values joined by “and” are separate entries in the source; they are usually repeats but may differ in a detail not shown here. Equal values may be shown once.

System: ‘off’ period in subjects with PD
Experiment: Single-dose reversal of 'off' period in subjects with PD, subcutaneous vs intra-nasal apomorphine
Assay type: in vivo, human
Conditions: for Duration of ‘on’ response / Latency for ‘on’ response: s/c (subcutaneous), normal dose 2-5 mg, individual PD subjects 1-6
Text: The nasal powder formulation used in this study was in accordance with this invention prepared using the method of Method example 1 and comprised the following components:
Six subjects with PD complicated by motor fluctuations were studied, 5 male (mean age 64 years, range 57-70 years), […]. The mean duration of disease was 13 years (range 7-24 years). […] On each dosing day the subjects attended the clinic and their normal oral medication was withheld until an ‘off’ episode developed. Each subject then received the designated apomorphine dose (subcutaneous or nasal). The abbreviated Unified PD Rating Scale (UPDRS) was used to assess motor performance at regular intervals following each apomorphine dosing. The time for the ‘off’ period to be fully alleviated and the duration of this response were determined primarily by patient feedback and supported by clinical judgement and the UPDRS scores.

[1] = subcutaneous dosing 2-5 mg, mean of 6 subjects

CN1CCc2cccc3c2[C@H]1Cc1ccc(O)c(O)c1-3 [subcutaneous apomorphine, Apomorphine]
Duration of ‘on’ response (subcutaneous dose 2 mg): 75 min and 96 min | Latency for ‘on’ response (subcutaneous dose 2 mg): 20 min | Duration of ‘on’ response (subcutaneous dose 4 mg): 65 min and 48 min and 43 min | Latency for ‘on’ response (subcutaneous dose 4 mg): 14 min (2×) and 30 min | Duration of ‘on’ response (subcutaneous dose 5 mg): 46 min | Latency for ‘on’ response (subcutaneous dose 5 mg): 61 min | Mean duration of ‘on’ response [1]: 62 min | Mean latency of ‘on’ response [1]: 27 min | Range of latency of response (subcutaneous dosing 2-5 mg, range over 6 subjects): 14 to 61 min | Range of duration of response (subcutaneous dosing, range over 6 subjects): 43 to 96 min
